# Experimental data reported in US10952961B2, “Implants and constructs including hollow fibers” (priority 2015, dated 2021).
# Legend:
# [1] = Diffusivity of example drug molecules in water and in broad membrane pores; assay type: physicochemical; conditions: diffusivity within broad-pore membrane (HFHHP); unit not printed in this column, D is in cm^2/s
# Text: Assuming that the pore diameter essentially exceeds the molecule dimension, which is necessary for drug release to occur in any of the modes of drug release, Dm can be presented as product of three multipliers: diffusivity in water D, membrane porosity ε and tortuosity t0; Dm=Dεt0^−1. The maximal porosity is about 0.5. Taking into account the tortuosity t0=2, Dm˜0.25D. Vl has to be replaced by local interstitial velocity Vint. In turn, Vint can be specified as Vn(LB), when the condition 2Rlb>>Rf is valid and the fabric is placed at a small distance from LB. […] As to lm, having its value be small is desirable for the diffusion-dominated case.
# [formula] This yields, E=Pe^0.5. This equation estimate E from below, i.e., the real E is essentially larger. A larger Pe means a larger role of convection in comparison with diffusion. […] But the derived equation quantifies this observation. The diffusivity D depends on the water viscosity η and on the macromolecule radius r. This dependence is described by the Stokes-Einstein equation:
# [formula] where k is the Boltzman constant, T is absolute temperature. r increases with molecular weight (MW) and 100<MW<500 g/mole. This is not true for proteins and larger molecules.
# With respect to broad pores of membrane in case of HFHHP, Dm≅εt0^−1D˜0.25D.
# [2] = diffusivity in water; cited from earlier work
# [3] = test system: Pseudomonas aeruginosa PAO1 Xen41; assay: Zone of inhibition (modified Kirby-Bauer) of drug-loaded hollow fibers; assay type: cell-based; conditions: drug-loaded polypropylene hollow fibers (saturated solution)
# Procedure: (§1) To assess the antimicrobial efficacy of drug loaded hollow fibers, we used a modified Kirby-Bauer assay where a zone of inhibition of bacterial growth was measured on a solid agar plate as is normally done in the field of microbiology. This model was used since it allowed us to capture the real time drug release from the hollow fibers and at the same time to represent a model of drug release into a soft tissue. […] Vancomycin was chosen for proof of principle with the hollow fibers devices because this antibiotic has precedent in being commonly used to combat S. aureus infection in orthopedic joint arthroplasties, where locally high concentrations are delivered by elution from both non-absorbable (polymethyl methacrylate, PMMA) and absorbable mineral cements. Ciprofloxacin was used since it is a broad spectrum antibiotic used to target Gram negative pathogens such as P. aeruginosa. In addition, water soluble fluorescein sodium was used as a model drug to assess the release of a hydrophilic water-soluble agent from the hollow fiber drug delivery system. All reagents were purchased from Sigma-Aldrich. P. aeruginosa and S. aureus are biofilm-forming pathogens commonly isolated from infected meshes and sutures, and the strains we have selected have been transformed with bioluminescent genes so that live biofilm development and activity can be tracked in real time using a photon counting camera (Xenogen IVIS imaging system, Alameda, Calif.).
# (§2) A lawn of bacteria was spread out onto an LB (Luria broth) agar plate. The plate was incubated at 5% CO2 at 37° C. for 18 hours for the first challenge. The fibers were then aseptically removed from the original plate and placed on a fresh lawn of bacteria on a new plate for the second challenge and incubated as before. Drug-free hollow fibers rinsed with isopropanol alone were used as controls. Experiments were repeated in triplicate. […] The fibers were then placed on a fresh plate and re-challenged. […]
# [4] = room temperature; cited from earlier work
# [5] = test system: Staphylococcus aureus 16MRSA Xen30; assay: Zone of inhibition (modified Kirby-Bauer) of drug-loaded hollow fibers; assay type: cell-based
# Procedure: as §1, §2
# [6] = Saturated drug solutions in normal saline used to fill hollow fibers; assay type: physicochemical
# Text: Pressure was applied on the syringe plunger until liquid drops were visibly seen to form at the open end of each of the hollow fibers.
compound,measurement,setting,value
Cn1c(=O)c2c(ncn2C)n(C)c1=O [Caffeine],Dm = 0.25 D,[1],1.5 × 10^−6
same,D (cm^2/s) Aqueous,[2],4.9 × 10^−6 cm^2/s
O=C(O)c1cn(C2CC2)c2cc(N3CCNCC3)c(F)cc2c1=O [ciprofloxacin],challenges over which a zone of inhibition was achieved,[3],one challenge
CO[C@H]1/C=C/O[C@@]2(C)Oc3c(C)c(O)c4c(O)c(c(/C=N/N5CCN(C)CC5)c(O)c4c3C2=O)NC(=O)/C(C)=C\C=C\[C@H](C)[C@H](O)[C@@H](C)[C@@H](O)[C@@H](C)[C@H](OC(C)=O)[C@@H]1C [rifampicin],solubility in methanol,[4],at least 50 milligrams/milliliter
CN[C@H](CC(C)C)C(=O)N[C@H]1C(=O)N[C@@H](CC(N)=O)C(=O)N[C@H]2C(=O)N[C@H]3C(=O)N[C@H](C(=O)N[C@H](C(=O)O)c4cc(O)cc(O)c4-c4cc3ccc4O)[C@H](O)c3ccc(c(Cl)c3)Oc3cc2cc(c3O[C@@H]2O[C@H](CO)[C@@H](O)[C@H](O)[C@H]2O[C@H]2C[C@](C)(N)[C@H](O)[C@H](C)O2)Oc2ccc(cc2Cl)[C@H]1O [vancomycin],period over which a zone of inhibition was achieved,"[5]; drug-loaded polypropylene hollow fibers (saturated solution), repeated challenges on fresh lawns",2 days
same,activity on the second challenge,[5]; fiber moved to a fresh plate and re-challenged,showed activity
same,concentration of saturated solution,[6],100000 µg/mL
Insulin,Dm = 0.25 D,[1],2.5 × 10^−7
same,D (cm^2/s) Aqueous,[2],8.3 × 10^−7 cm^2/s
